Test results published in ChEMBL document CHEMBL5385918, “Aculeatiols A-G: Lovastatin Derivatives Extracted from Aspergillus aculeatus” (2024).
Calls of active or inactive are those of the source. The calls are words filed in the database; no cut-off is given here.

Columns and labels:
[1] = test system: HepG2; assay: Anti-lipid accumulation activity in human HepG2 cells assessed as reduction in FFA-induced intracellular lipid level pretreated with compound for 48 hrs followed by FFA addition and measured after 48 hrs; assay type: functional, cell-based; details: time 96.0 hrs
[2] = test system: HepG2; assay: Anti-lipid accumulation activity in human HepG2 cells assessed as reduction in FFA-induced intracellular lipid level at 10 uM pretreated with compound for 48 hrs followed by FFA addition and measured after 48 hrs; assay type: functional; design: scale not given: the % may be the effect or the level left; details: time 96 hrs
[3] = test system: HepG2; assay: Anti-lipid accumulation activity in human HepG2 cells assessed as reduction in FFA-induced number of lipid droplets at 5 to 10 uM pretreated with compound for 24 hrs followed by FFA addition and measured after 48 hrs by oil red O staining based analysis; assay type: functional, cell-based; details: dose 5-10 µM, time 72.0 hrs
[4] = test system: HepG2; assay: Anti-lipid accumulation activity in human HepG2 cells assessed as reduction in FFA-induced intracellular triglyceride content incubated for 24 hrs; assay type: functional, cell-based; details: dose 5-10 µM
[5] = test system: HepG2; assay: Downregulation of FATP2 mRNA expression in FFA-induced human HepG2 cells at 5 to 10 uM pretreated with compound for 24 hrs followed by FFA-induction and measured after 24 hrs by qRT-PCR analysis; assay type: functional, cell-based; details: dose 5-10 µM, time 48.0 hrs
[6] = test system: HepG2; assay: Downregulation of FATP5 mRNA expression in FFA-induced human HepG2 cells at 5 to 10 uM pretreated with compound for 24 hrs followed by FFA-induction and measured after 24 hrs by qRT-PCR analysis; assay type: functional, cell-based; details: dose 5-10 µM, time 48.0 hrs
[7] = test system: HepG2; assay: Downregulation of FAS mRNA expression in FFA-induced human HepG2 cells at 5 to 10 uM pretreated with compound for 24 hrs followed by FFA-induction and measured after 24 hrs by qRT-PCR analysis; assay type: functional, cell-based; details: dose 5-10 µM, time 48.0 hrs
[8] = test system: HepG2; assay: Downregulation of SCD1 mRNA expression in FFA-induced human HepG2 cells at 5 to 10 uM pretreated with compound for 24 hrs followed by FFA-induction and measured after 24 hrs by qRT-PCR analysis; assay type: functional, cell-based; details: dose 5-10 µM, time 48.0 hrs
[9] = test system: HepG2; assay: Upregulation of PPARalpha mRNA expression in FFA-induced human HepG2 cells at 5 to 10 uM pretreated with compound for 24 hrs followed by FFA-induction and measured after 24 hrs by qRT-PCR analysis; assay type: functional, cell-based; details: dose 5-10 µM, time 48.0 hrs
[10] = test system: HepG2; assay: Upregulation of ACOX1 mRNA expression in FFA-induced human HepG2 cells at 5 to 10 uM pretreated with compound for 24 hrs followed by FFA-induction and measured after 24 hrs by qRT-PCR analysis; assay type: functional, cell-based; details: dose 5-10 µM, time 48.0 hrs

SMILES | Activity [1] | other results
C=C(C)CC(=O)O[C@@H]1C[C@H](C)C[C@@H]2CC(=O)[C@@H](C)[C@H]([C@@H]3O[C@H]3[C@H](O)[C@H]3C=C(C)C(=O)O3)[C@H]21 | Active | –
C[C@@H]1C=C2C=C[C@]3(CO)OCCC(=O)[C@]3(C)[C@H]2[C@@H](O)C1 | Active | –
C=C(C)CC(=O)O[C@@H]1C[C@H](C)C[C@@H]2CC(=O)[C@@H](C)[C@H]([C@@H]3O[C@H]3[C@@H](O)[C@H]3C=C(C)C(=O)O3)[C@H]21 | Active | –
C/C(=C\[C@H](O)[C@H](O)[C@H](O)[C@H](O)[C@@H]1[C@@H]2[C@@H](CC(=O)[C@@H]1C)C[C@@H](C)C[C@H]2O)C(=O)O | Active | –
C=C(C)CC(=O)O[C@@H]1C[C@H](C)C[C@@H]2CC(=O)[C@@H](C)[C@H]([C@@H]3O[C@H]3[C@H](O)[C@@H]3C=C(C)C(=O)O3)[C@H]21 | Active | –
C[C@@H]1C=C2C=C[C@]3(C)OCCC(=O)[C@]3(C)[C@H]2[C@@H](O)C1 | Active | –
C[C@H]1C[C@H](O)[C@H]2[C@@H](C=C[C@@](C)(O)[C@]2(C)C(=O)CCO)C1 | Active | –
C[C@@H]1C=C2C=CC3OCCC(=O)[C@]3(C)[C@H]2[C@@H](O)[C@H]1O (some centres undefined) | Active | –
Cc1ccc2c(c1)[C@H]1O[C@]3(O)CCO[C@](C)([C@H]1O)[C@]23C | Active | –
C\C(=C/C=C/C=C/[C@H]1[C@@H](C)[C@H](O)[C@@H](O)[C@H]2C[C@@H](C)C[C@@H](C)[C@H]12)C(=O)O | Active | Activity [2]: 50%; Activity [3]: Active; Activity [4]: Dose-Dependent Effect; Activity [5]: Active; Activity [6]: Active; Activity [7]: Active; Activity [8]: Active; Activity [9]: Active; Activity [10]: Active
